Source: PubChem BioAssay AID1745844 (Carcinogenic Potency Database (CPDB), 2022)
The source made the active and inactive calls. No rule for the calls is given here.

Test system: rodent lifetime carcinogenesis bioassay, tumor incidence TD50
Assay: chronic cancer bioassays in animals – CPDB, compiled studies (AID 1745844)
Details: by gavage, dosed 103 weeks, study length 105 weeks

Q: Which TD50 (mouse, strain B6C3F1, females, site: Harderian gland + liver + lung + ovary, lesion: adenoma + adenoma, bilateral + hepatocellular adenoma + alveolar/bronchiolar adenoma + alveolar/bronchiolar carcinoma + granulosa-) does the source give for `C=CC(=O)NCO` here?
A: 27.8 mg/kg/day

Q: And the TD50 (mouse, strain B6C3F1, females, site: Harderian gland, lesion: adenoma + adenoma, bilateral + carcinoma)?
A: 44.6 mg/kg/day

Q: What about the TD50 (mouse, strain B6C3F1, females, site: Harderian gland, lesion: adenoma + adenoma, bilateral) of the same compound?
A: 55.5 mg/kg/day

Q: What about the TD50 (mouse, strain B6C3F1, females, site: any site (literature study), lesion: several types, types named in the paper) of the same compound?
A: 30.9 mg/kg/day

Q: What about the TD50 (mouse, strain B6C3F1, females, site: liver, lesion: hepatocellular adenoma + hepatocellular carcinoma + neoplastic nodule) of the same compound?
A: 74.8 mg/kg/day

Q: What about the TD50 (mouse, strain B6C3F1, females, site: liver, lesion: hepatocellular adenoma + hepatocellular carcinoma) of the same compound?
A: 74.8 mg/kg/day

Q: What about the TD50 (mouse, strain B6C3F1, females, site: liver, lesion: hepatocellular adenoma) of the same compound?
A: 66.9 mg/kg/day

Q: What about the TD50 (mouse, strain B6C3F1, females, site: lung, lesion: alveolar/bronchiolar adenoma + alveolar/bronchiolar carcinoma) of the same compound?
A: 111 mg/kg/day

Q: What about the TD50 (mouse, strain B6C3F1, females, site: ovary, lesion: granulosa-cell tumor, benign) of the same compound?
A: 119 mg/kg/day

Q: What about the TD50 (mouse, strain B6C3F1, males, site: Harderian gland + liver + lung, lesion: adenoma + hepatocellular adenoma + hepatocellular carcinoma + alveolar/bronchiolar adenoma + alveolar/bronchiolar carcinoma) of the same compound?
A: 13.3 mg/kg/day

Q: What about the TD50 (mouse, strain B6C3F1, males, site: Harderian gland, lesion: adenoma + carcinoma) of the same compound?
A: 17.4 mg/kg/day

Q: What about the TD50 (mouse, strain B6C3F1, males, site: Harderian gland, lesion: adenoma) of the same compound?
A: 17.5 mg/kg/day

Q: What about the TD50 (mouse, strain B6C3F1, males, site: any site (literature study), lesion: several types, types named in the paper) of the same compound?
A: 22.3 mg/kg/day

Q: And the TD50 (mouse, strain B6C3F1, males, site: liver, lesion: hepatocellular adenoma + hepatocellular carcinoma + neoplastic nodule)?
A: 29.4 mg/kg/day

Q: What about the TD50 (mouse, strain B6C3F1, males, site: liver, lesion: hepatocellular adenoma + hepatocellular carcinoma) of the same compound?
A: 29.4 mg/kg/day

Q: And the TD50 (mouse, strain B6C3F1, males, site: liver, lesion: hepatocellular adenoma)?
A: 50.2 mg/kg/day

Q: And the TD50 (mouse, strain B6C3F1, males, site: liver, lesion: hepatocellular carcinoma)?
A: 63.4 mg/kg/day

Q: What about the TD50 (mouse, strain B6C3F1, males, site: lung, lesion: alveolar/bronchiolar adenoma + alveolar/bronchiolar carcinoma) of the same compound?
A: 38.5 mg/kg/day

Q: And the TD50 (mouse, strain B6C3F1, males, site: lung, lesion: alveolar/bronchiolar adenoma)?
A: 66 mg/kg/day

Q: And the TD50 (mouse, strain B6C3F1, males, site: lung, lesion: alveolar/bronchiolar carcinoma)?
A: 75.1 mg/kg/day

Q: What about the carcinogen call (rat, strain Fischer 344, females, site: any site (literature study), lesion: several types, types named in the paper) of the same compound?
A: negative (inactive)

Q: And the TD50 (rat, strain Fischer 344, males, site: any site (literature study), lesion: several types, types named in the paper)?
A: 3120 mg/kg/day

Q: What about the TD50 (rat, strain Fischer 344, males, site: skin, lesion: keratoacanthoma) of the same compound?
A: 13 mg/kg/day (inactive)
